Legend:
apelinR = biological target: apelinR; design: method as in PMID 33663236; details: cited from earlier work
human apelinR = biological target: T1, human apelinR (Homo sapiens, UniProt P35414); experiment: ApelinR radioligand binding experiment (competition with [125I]-(Nle11,Tyr13) apelin-13); details: Fig. 1; membranes of CHO cells stably expressing hApelinR; 0.2 nM [125I]-(Nle11,Tyr13) apelin-13; 3 h at 20 °C; n = 4 to 6 independent experiments in duplicate; read-out: Binding affinity IC50 ± SEM
T1 construct: expressed in transfected cells; crude membrane preparations
T1 sequence (P35414 1-380): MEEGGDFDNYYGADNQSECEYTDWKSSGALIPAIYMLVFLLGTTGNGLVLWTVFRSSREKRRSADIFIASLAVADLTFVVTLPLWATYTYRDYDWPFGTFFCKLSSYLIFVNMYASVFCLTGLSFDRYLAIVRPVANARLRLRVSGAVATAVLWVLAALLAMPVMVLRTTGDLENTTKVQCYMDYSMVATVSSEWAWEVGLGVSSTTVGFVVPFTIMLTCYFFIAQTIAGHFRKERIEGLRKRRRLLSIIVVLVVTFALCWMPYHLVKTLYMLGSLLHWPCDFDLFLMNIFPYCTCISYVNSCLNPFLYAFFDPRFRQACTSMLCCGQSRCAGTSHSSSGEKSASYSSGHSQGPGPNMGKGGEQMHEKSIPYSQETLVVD

[1] = tested on: wild-type male mice (C57BL/6); experiment: Blood pressure lowering assay in anesthetized mice; format: in vivo, mouse; details: 0.5 μmol kg^−1 infusion during 5 min via jugular vein; anesthetized wild-type male C57BL/6 mice; compared to vehicle control
Protocol: The metabolically stable apelin analogues from each isoform, CbzPEG6–NMeLeu17A2 and NMeLeu13A2 along with the small molecule agonist, BMS-986224 (0.5 μmol kg^−1 infusion during 5 min for each compound), were tested for their BP lowering activity in anesthetized wild-type male mice (C57BL/6, 24–30 g). […] In contrast, the hypotensive effect of CbzPEG6–NMeLeu17A2 was observed immediately after infusion. This analogue reduced mean arterial pressure (MAP) by approximately 50% during the experiment, with the effect sustained for more than 30 minutes post-administration. Apelin can act on the endothelial layer of vasculature, leading to systemic changes in blood pressure by increasing the synthesis of nitric oxide (NO).[5] The effect of CbzPEG6–NMeLeu17A2 on […], which decreases the […] resistance by increasing eNOS activation and NO production through the activation of the PI3K/Akt signalling pathway on endothelial cells like other apelin analogues we tested in the previous studies.[5,11]
The blood pressure measurement and apelin injection method has been described in our previous research.[43] During the blood pressure testing, mice aged 12–14 weeks were anesthetized with 1.5% isoflurane in oxygen and monitored throughout the experiment. The blood pressure was measured using a PV loop catheter (model 1.2F, Transonic) […] into the left carotid artery. The monitor system (LabScribe 2.0. Scisense) recorded aortic blood pressure and heart rate. After a 20-minute baseline measurement, CbzPEG6–NMeLeu17A2, NMeLeu13A2, RI13, RI13A2, RI17, RI17A2, and BMS-986224 (0.5 μmol […] body weight) were diluted in saline and consistently infused for 5 min via the right jugular vein. For BMS-986224, 0.1% DMSO was added to saline to help with dilution. Blood pressure was continuously recorded for 60 minutes post-infusion.
3. Effects of APJ agonists on blood pressure
Figure S3. Different effects of apelin analog and receptor agonist on blood pressure and ischemia-reperfusion injury. A) the effect of CbzPEG6–NMeLeu17A2 (n=3) on mean arterial blood pressure (MAP), B) the effect of apelin 13 analog, NMeLeu13A2, on MAP (n=4). The effect of apelin 13 analog reverse enantiomers, C) RI13 (n=4) and D) RI13A2 (n=4), on MAP. The effect of apelin 17 reverse enantiomers, E) RI17 (n=4) and F) RI17A2 (n=4) on MAP. G) The effect of small molecule apelin receptor agonist BMS-986224 on blood pressure (n=4). The MAP recording between 50 and 60 minutes has been averaged and compared with their controls (placebo (n=4)). The vehicle for BMS-986224 is 0.1% DMSO (n=3). The arrow indicates the time when analogs were introduced. Values mean ±SEM and ****P<0.0001, compared to the control group.
(1 picture or pasted object on this page, not shown here)

apelinR / human Gαi1 = biological target: T2, apelinR / human Gαi1 (Homo sapiens, UniProt P35414); experiment: ebBRET Gαi1 activation; format: cell-based; details: HEK293 cells transfected with apelinR, human Gαi1, Rap1GAP-RlucII, rGFP-CAAX; 10 min at 37 °C; mean ± SEM of 5 to 6 independent experiments; read-out: Gαi1 activation log EC50 (converted)
T2 sequence (P35414 1-380): T1 sequence (P35414 1-380)

apelinR / β-arrestin2 = biological target: T3, apelinR / β-arrestin2 (Homo sapiens, UniProt P35414); experiment: ebBRET β-arrestin2 recruitment; format: cell-based; details: HEK293 cells transfected with apelinR, β-arrestin2-RlucII, rGFP-CAAX; 10 min at 37 °C; mean ± SEM of 5 to 6 independent experiments; read-out: β-arr2 recruitment log EC50 (converted)
T3 sequence (P35414 1-380): T1 sequence (P35414 1-380)

apelinR / β-arrestin1 = biological target: T4, apelinR / β-arrestin1 (Homo sapiens, UniProt P35414); experiment: ebBRET β-arrestin1 recruitment; format: cell-based; details: HEK293 cells transfected with apelinR, β-arrestin1-RlucII, rGFP-CAAX; 10 min at 37 °C; mean ± SEM of 5 to 6 independent experiments; read-out: β-arr1 recruitment log EC50 (converted)
T4 sequence (P35414 1-380): T1 sequence (P35414 1-380)

[2] = tested on: isolated mouse heart (ischemia–reperfusion injury); experiment: Ex vivo Langendorff heart perfusion with ischemia–reperfusion; details: 1 μM in perfusion buffer for first 10 min of reperfusion after 30 min ischemia; compared to placebo; one-way ANOVA, Dunnett
rats = details: cited from earlier work
Text: Another avenue being investigated is the use of small molecule as agonists for the apelinR, such as, Bristol Myers Squibb's BMS-986224,[26,27] Amgen's AMG986,[28] and Davenport's CMF-019.[29] […] In contrast, the two non peptidic apelinR agonists, BMS-98622 ...

apelinR / human Gαi2 = biological target: T5, apelinR / human Gαi2 (Homo sapiens, UniProt P35414); experiment: ebBRET Gαi2 activation; format: cell-based; details: HEK293 cells transfected with apelinR, human Gαi2, Rap1GAP-RlucII, rGFP-CAAX; 10 min at 37 °C; mean ± SEM of 5 to 6 independent experiments; read-out: Gαi2 activation log EC50 (converted)
T5 sequence (P35414 1-380): T1 sequence (P35414 1-380)

[3] = G-protein-biased agonists; cited from earlier work
Text: The therapeutic potential of biased and unbiased agonists for the apelinR remains an area of active investigation, particularly regarding their effects on BP regulation. […] In contrast, the two non peptidic apelinR agonists, BMS-98622 ...

IC50 (human apelinR) [nM] | EC50 (apelinR / human Gαi1) [nM] | EC50 (apelinR / β-arrestin2) [nM] | EC50 (apelinR / β-arrestin1) [nM] | EC50 (apelinR / human Gαi2) [nM] | Structure (SMILES) | Kd (apelinR) [nM] | hypotensive effect (BP lowering activity, in words) [1] | cardioprotective effect / cardiac function recovery after ischemia–reperfusion (LVDP, RPP, max dP/dt, min dP/dt; in words) [2] | change in BP in a myocardial infarction (MI) rat model and a hypertension-induced cardiac dysfunction rat model (in words) (rats; MI rat model, hypertension-induced cardiac dysfunction rat model) | BP in anesthetized normotensive rats (in words) (rats; anesthetized normotensive rats, at the beginning of the infusion) | cardiac effects and blood pressure in a rat pressure–volume loop model (in words) (rats; rat pressure–volume loop model) | vasodilation (in words) [3]
16.4 ± 5.42 | 0.102 | 8.91 | 10.7 | 0.11 | CCOCc1nc(O)c(-c2nnc(Cc3ccc(Cl)cn3)o2)c(O)c1-c1c(OC)cccc1OC [BMS-986224, reference compound] | 0.3 | no hypotensive effect | failed to show significance in cardiac function recovery | do not induce any change in BP | slight but significant decrease in BP | positive cardiac effects without significantly lowering blood pressure | 
 |  |  |  |  | CCC(CC)n1c(Cc2cccs2)nc2cc(C(=O)N[C@H](CC(=O)O)CC(C)C)ccc21 [CMF-019] |  |  |  |  |  |  | demonstrated vasodilation
